Our source for the Water solubility values is patent publication EP4265127A1, “WATER-SOLUBLE EMULSION COMPOSITION CONTAINING NATURAL POLYPHENOL COMPOUND” (Yun, Kwan Sik, priority 2020, dated 2022).

This data set is described as follows: Water solubility confirmation (organic material content quantified by Karl Fisher method). It is filed as physicochemical. As to the method:
According to the composition shown in Tables 38 to 61, the water-soluble antioxidant emulsion was added to the natural polyphenol compound emulsion, and then mixing and dispersing were performed at 500 rpm or less while checking the properties of the emulsion to prepare an natural polyphenol compound-containing water-soluble emulsion composition containing a water-soluble antioxidant emulsion. […] After 1 hour of centrifugation and filtering, an organic material content was quantified by measuring a water content using a Karl Fisher method.
In the case of `O=c1cc(-c2ccccc2)oc2cc(O)c(O)c(O)c12` [Generic Powdered Baicalein], the Water solubility came out at 0.00%.

As to `COc1cc(/C=C/C(=O)CC(=O)/C=C/c2ccc(O)c(OC)c2)ccc1O` [Generic Powdered Curcumin], the Water solubility was found to be 0.00%.

Take `O=c1cc(-c2ccc(O)c(O)c2)oc2cc(O)cc(O)c12` [Generic Powdered Luteolin]: the Water solubility is given as 0.02%.

The compound `O=C1C[C@@H](c2ccc(O)cc2)Oc2cc(O)cc(O)c21` [Generic Powdered Naringenin] displayed a Water solubility of 0.04%.

On to `Oc1ccc(/C=C/c2cc(O)cc(O)c2)cc1` [Generic Powdered Resveratrol], for which the Water solubility is 0.00%.

With `O=c1c(O)c(-c2ccc(O)cc2)oc2cc(O)cc(O)c12` [Generic Powdered kaempferol], the Water solubility is 0.01%.

`COc1ccc([C@@H]2CC(=O)c3c(O)cc(O[C@@H]4O[C@H](CO[C@@H]5O[C@@H](C)[C@H](O)[C@@H](O)[C@H]5O)[C@@H](O)[C@H](O)[C@H]4O)cc3O2)cc1O` [Generic powdered Hesperidin]: the Water solubility was found to be 0.00%.

Take `O=c1c(O)c(-c2ccc(O)c(O)c2)oc2cc(O)cc(O)c12` [Generic powdered Quercetin]: the Water solubility was 0.00%.
